The source made the active and inactive calls. The rule behind the calls is not given here.

One assay has as its target Gag-Pol polyprotein (Human immunodeficiency virus type 1 group M subtype B (isolate HXB2)) (UniProt P04585). Put plainly: HIV-1 RT RNase H inhibitor potency, dose response, biochemical, probe assessment (AID 652). As to conditions: HIV-1 RT RNase H enzymatic assay.
Turning to `N#Cc1c(-c2cccnc2)c2c([nH]c1=S)CCCC2`, the concentration for half-maximal inhibition (IC50) was 10.2 µM.

As for `O=C(Nc1nc(-c2ccncc2)cs1)C1COc2ccccc2O1` (stereo not given), the IC50 was > 50 µM (inactive).

Regarding `C/C=C/CSc1nc2c(c(=O)[nH]c(=O)n2C)n1Cc1ccc(C)cc1`, the IC50 was 11.2 µM.

`S=C(c1ccc(-c2ccccc2Cl)o1)N1CCOCC1`: the IC50 was 0.926 µM.

For `COC(=O)C1=C(C)N=c2s/c(=C3\C(=O)Nc4ccccc43)c(=O)n2C1c1ccccc1` (stereo not given), the IC50 is 5.94 µM.

Consider `CN1CCN(C2=C(Cl)C(=O)N(c3ccc(Cl)c(Cl)c3)C2=O)CC1`, for which the half-maximal inhibitory concentration (IC50) was 27.1 µM.

For the molecule `CCOc1ccc(N2Cc3ccccc3C2)cc1`, the half-maximal inhibitory concentration (IC50) is 7.36 µM.

Take `C=CCSc1nc2c(cnn2-c2ccc(C)c(C)c2)c(=O)[nH]1`: the IC50 was 13.8 µM.

For `O=C1C=Cc2ccccc2C1=O`, the IC50 was 2.64 µM.

In the case of `Fc1ccccc1CSc1nc2ncccc2[nH]1`, the IC50 is 9.72 µM.

In the case of `CCCCn1c(SCC(=O)OCC)nc2c1c(=O)[nH]c(=O)n2C`, the IC50 was > 50 µM (inactive).

Regarding `CN(C)c1ccc(N=Cc2c(O)n(CCC3=CCCCC3)c(=O)[nH]c2=O)cc1`, the IC50 was 3.8 µM.

Consider `CCN(CC)C1=CC(=O)OC12CCCCC2`, for which the IC50 is 42.8 µM.

For `COCCn1c(SCCN2CCOCC2)nc2c1c(=O)[nH]c(=O)n2C`, the IC50 is > 50 µM (inactive).

`S=C(c1ccc(Cl)cc1)N1CCOCC1`: the IC50 was 4.01 µM.

The same assay, now with this note: HIV-1 RT RNase H enzymatic assay, inhibition, at 50 µM, stronger effect = higher value.
As to `Cc1ccc(Cn2c(SCC(C)C)nc3c2c(=O)[nH]c(=O)n3C)cc1`, the inhibition was determined as 91.8%.

Take `CC(C)Cc1cc(C(=O)Nc2sc3c(c2C#N)CCCC3)no1`: the inhibition came out at 94.6%.

Take `Cc1cc(C)c(NC(=O)Cn2c(=O)n(Cc3ccco3)c(=O)c3ccccc32)c(C)c1`: the inhibition stood at 76.8%.

As to `N#Cc1c(-c2cccnc2)c2c([nH]c1=S)CCCC2`, the inhibition came to 77.9%.

For the molecule `CCOC(=O)N1CCc2c(sc3c2C(=O)NC(c2ccc(-c4ccc(Cl)cc4)o2)N3)C1` (stereo not given), the inhibition turned out to be 94.3%.

For the molecule `CCN1CCN(c2nc(C)nc3c2sc(=S)n3C)CC1`, the inhibition amounted to 76.3%.

`O=C(Nc1nc(-c2ccncc2)cs1)C1COc2ccccc2O1` (stereo not given): the inhibition was found to be 92.5%.

With `C=CCOc1ccc(CC2C(=O)N(C)C(=O)N(C)C2=O)cc1`, the inhibition is 101%.

In the case of `N#Cc1c(NC(=O)c2ccc(Cn3cc(Br)cn3)o2)sc2c1CCCCCC2`, the inhibition amounted to 98%.

With `OCCN1CCN(C(=S)c2ccc(Cl)c(Cl)c2)CC1`, the inhibition was 76.6%.

For `COc1ccccc1N=c1oc2c(OC)cccc2cc1C(=O)NCc1ccco1`, the inhibition came out at 94.1%.

`c1ccc(Cc2nn3c(Cn4nnc5ccccc54)nnc3s2)cc1`: the inhibition amounted to 96.1%.

For the molecule `O=C(O)/C=C/c1ccc(O)c(O)c1`, the inhibition came to 52.1%.

For `Cc1ccc(-n2c(N)c(C(=O)N3CCOCC3)sc2=S)cc1`, the inhibition is 75.9%.

Consider `CCCN(CCC)S(=O)(=O)c1ccc(C(=O)Nc2nnc(-c3cccc(OC)c3)o2)cc1`, for which the inhibition amounted to 87.4%.

With `Cc1ccc(-n2c(N)c(C(=O)N3CCCCC3)sc2=S)cc1`, the inhibition is 79.5%.

As for `Cc1sc2nc(SCC(=O)NCc3ccco3)n(CCc3ccccc3)c(=O)c2c1C`, the inhibition turned out to be 82.4%.

Turning to `COC(=O)c1oc2ccc(Br)cc2c1NC(=O)c1ccccc1`, the inhibition was determined as 94%.

For the molecule `C/C=C/CSc1nc2c(c(=O)[nH]c(=O)n2C)n1Cc1ccc(C)cc1`, the inhibition stood at 101%.

Turning to `COc1ccc2[nH]c(=O)c(CN(C3CCCCC3)C(c3nnnn3Cc3ccco3)C(C)C)cc2c1` (stereo not given), the inhibition was determined as 88.5%.

Regarding `COc1ccc2ccccc2c1C1CC(=O)N2CN(C3CCCCC3)CSC2=C1C#N` (stereo not given), the inhibition was determined as 92.3%.

`O=C1CC(c2ccccc2)Cc2nc(N3CCc4ccccc43)ncc21` (stereo not given): the inhibition came to 94.6%.

As for `CC(C)CN(C(=O)COC(=O)c1ccc2c(c1)NC(=O)CS2)C1CCS(=O)(=O)C1` (stereo not given), the inhibition was found to be 55.8%.

As to `S=C(c1ccc(-c2ccccc2Cl)o1)N1CCOCC1`, the inhibition turned out to be 92.6%.

On to `Cc1ccccc1NC(=O)c1c(O)c2cccc3c2n(c1=O)CC3`, for which the inhibition is 84.6%.

For the molecule `COCCn1c(-c2ccc(-c3ccccc3Cl)o2)nc2c1c(=O)[nH]c(=O)n2CC(C)C`, the inhibition came to 85%.

For `O=C(NCCc1ccccc1)c1c(O)c2cccc3c2n(c1=O)CC3`, the inhibition turned out to be 67.7%.

For `CC(C)Cn1c(SCC(=O)NC(=O)Nc2ccc3c(c2)OCCO3)nc2ccccc2c1=O`, the inhibition is 83.9%.

For `COC(=O)C1=C(C)N=c2s/c(=C3\C(=O)Nc4ccccc43)c(=O)n2C1c1ccccc1` (stereo not given), the inhibition stood at 85.1%.

`CN1CCN(C2=C(Cl)C(=O)N(c3ccc(Cl)c(Cl)c3)C2=O)CC1`: the inhibition was determined as 61.9%.

With `CCCCCCNC(=O)c1c(N)n(/N=C/c2ccco2)c2nc3ccccc3nc12`, the inhibition came to 98.3%.

As to `CCOc1ccc(N2Cc3ccccc3C2)cc1`, the inhibition worked out at 80%.

Turning to `C=CCSc1nc2c(cnn2-c2ccc(C)c(C)c2)c(=O)[nH]1`, the inhibition was determined as 88.6%.

As to `O=C1C=Cc2ccccc2C1=O`, the inhibition was 97.7%.

As for `COc1ccc(S(=O)(=O)Nc2ccc(O)c3ccccc23)cc1`, the inhibition was 67.3%.

On to `COc1ccc(N2CCN(Cc3cc(=O)oc4cc5c(cc34)CCCC5)CC2)cc1`, for which the inhibition was 88.8%.

In the case of `c1ccc(Cc2nnc3sc(-c4ccncc4)nn23)cc1`, the inhibition was determined as 80.4%.

As for `Cc1ccc(NC(=O)CSc2nnc(-c3ccc(S(=O)(=O)N4CCCC4)cc3)o2)cc1C`, the inhibition turned out to be 88.6%.

As to `CC(C)C1N=C2c3ccccc3N=C(SCC(=O)c3ccc(O)c(O)c3)N2C1=O` (stereo not given), the inhibition came out at 99.8%.

Take `CCCc1cc(C(=O)Nc2sc3c(c2C#N)CCC3)no1`: the inhibition came to 92.6%.

`COc1ccc(C2C(C(C)=O)=C(C)N=c3s/c(=C/c4ccc5c(c4)OCO5)c(=O)n32)cc1` (stereo not given): the inhibition was 82.2%.

On to `Cc1ccc2c(c1C)NC(C(=O)O)C1CC=CC21` (stereo not given), for which the inhibition turned out to be 96.5%.

`O=C(Nc1ccc2nc(-c3ccco3)c(-c3ccco3)nc2c1)N1CCCCCC1`: the inhibition amounted to 97%.

Take `Fc1ccccc1CSc1nc2ncccc2[nH]1`: the inhibition came to 57.7%.

Consider `Cc1nc(C)c(C(=O)Nc2nc3c(C)cccc3s2)o1`, for which the inhibition amounted to 100%.

Consider `Fc1ccc(-c2nnc3sc(-c4ccc5c(c4)OCO5)nn23)cc1`, for which the inhibition stood at 72.3%.

As to `O=C(NCc1ccco1)c1cc2cc3ccc(Cl)cc3nc2o1`, the inhibition is 91.6%.

Consider `Nc1c(C(=O)N2CCCCC2)sc(=S)n1-c1ccccc1`, for which the inhibition is 83.2%.

Take `Cc1nc(-c2cccc(S(=O)(=O)N3CCOCC3)c2)cs1`: the inhibition was determined as 96.4%.

For the molecule `COc1cc(N=c2ssnc2Cl)cc(OC)c1OC`, the inhibition worked out at 78.8%.

`CCOC(=O)Cc1csc(-n2sc3ccccc3c2=O)n1`: the inhibition is 96.4%.

On to `CCCc1cc(C(=O)Nc2sc(C)c(C)c2C(=O)OCC)no1`, for which the inhibition came to 98%.

Take `O=C(CSc1nc2ccccc2c2nc3ccccc3n12)NCc1ccco1`: the inhibition was 67.7%.

Regarding `COc1ccc(-n2c(SCC(=O)N3CCCC3)nc3c([nH]c4ccccc43)c2=O)cc1`, the inhibition is 66.7%.

For the molecule `CCOC(=O)C1=C(C)N=c2s/c(=C3\C(=O)Nc4ccccc43)c(=O)n2C1c1ccc2c(c1)OCO2` (stereo not given), the inhibition was 83.8%.

Take `Cc1cc(-c2nn3c(-c4ccccc4)nnc3s2)c2ccccc2n1`: the inhibition was 94.7%.

Consider `COc1ccc(N2CSC3=C(C#N)C(c4cc(OC)c(OC)cc4OC)CC(=O)N3C2)c(OC)c1` (stereo not given), for which the inhibition amounted to 76.1%.

In the case of `COC(=O)c1ccc2c(c1)N(Cc1nc(-c3ccc(Cl)cc3)oc1C)C(=O)C1CCCN21` (stereo not given), the inhibition came out at 78.9%.

For the molecule `CCOC(=O)c1sc(=S)n2c1[nH]c(=O)c1ccc(C(=O)OC)cc12`, the inhibition was 99.7%.

Turning to `CCOC(=O)N(c1ccccc1)P1(=S)OCCO1`, the inhibition came out at 85.5%.

Turning to `COc1ccc(C2c3c(oc4ccc(Cl)cc4c3=O)C(=O)N2Cc2ccco2)cc1OC` (stereo not given), the inhibition stood at 95.9%.

`CCCCn1c(SCC(=O)OCC)nc2c1c(=O)[nH]c(=O)n2C`: the inhibition was 55.7%.

For `CN(C)c1ccc(N=Cc2c(O)n(CCC3=CCCCC3)c(=O)[nH]c2=O)cc1`, the inhibition was found to be 80.1%.

For `CCc1ccccc1N1CSC2=C(C#N)C(c3ccccc3F)CC(=O)N2C1` (stereo not given), the inhibition was determined as 98.5%.

Take `CCN(CC)C1=CC(=O)OC12CCCCC2`: the inhibition was determined as 65.8%.

As for `COC(=O)c1sc(N2C(=O)c3oc4ccccc4c(=O)c3C2c2cccs2)nc1C` (stereo not given), the inhibition is 95.8%.

For `C=CCc1c(C)[nH]c(=S)c(C#N)c1C`, the inhibition amounted to 67.2%.

`O=c1c(O)c(-c2ccc(O)cc2O)oc2cc(O)cc(O)c12`: the inhibition stood at 92.8%.

`CCC1(C)Cc2c(sc3c2c(=O)n(C)c2nnc(SCc4ccc5c(c4)OCO5)n32)CO1` (stereo not given): the inhibition came to 96.2%.

Consider `COCCn1c(SCCN2CCOCC2)nc2c1c(=O)[nH]c(=O)n2C`, for which the inhibition is 40%.

Consider `S=C(c1ccc(Cl)cc1)N1CCOCC1`, for which the inhibition is 73.5%.

As for `CC(C)(C)c1ccc(-c2nnc3sc(-c4ccncc4)nn23)cc1`, the inhibition was determined as 96.3%.

Regarding `NC(=O)c1cc(-c2ccccc2)sc1NC(=O)Cc1ccc(S(=O)(=O)N2CCOCC2)s1`, the inhibition turned out to be 83.3%.

As to `Cc1ccc(-c2cc(C(F)F)n3ncc(C(=O)NCc4ccco4)c3n2)cc1`, the inhibition came to 93%.

`Cc1ccnc(-n2sc3ccccc3c2=O)n1`: the inhibition was found to be 96.7%.

Take `Cc1cc(NC(=O)CSc2nc3cc4c(cc3c(=O)n2CCc2ccccc2)OCO4)no1`: the inhibition was 76.9%.

With `CCC(C)Sc1nc2c(c(=O)[nH]c(=O)n2C)n1CC(O)COc1cccc2ccccc12` (stereo not given), the inhibition came to 95%.

As to `CCC(C)c1ccc2oc(-c3ccc(NC(=O)c4ncn[nH]4)cc3)nc2c1` (stereo not given), the inhibition was 94.2%.

As for `CC1=C(SCCC#N)S/C(=C2\SC(C)=C(SCCC#N)S2)S1`, the inhibition was 97.5%.

Consider `CC(C)Sc1nc2sc3c(c2c2nnc(SCC(=O)NCc4ccco4)n12)CCCC3`, for which the inhibition came to 85.1%.

With `Cc1nn(CCc2nc(-c3ccco3)cs2)c2[nH]c(=O)cc(C(F)(F)F)c12`, the inhibition came to 97.6%.

In the case of `O=C(COc1ccc(Br)cc1)Nc1ccc(-c2nnc(-c3ccco3)o2)cc1`, the inhibition amounted to 95.1%.

For the molecule `O=C(Cn1c(=O)oc2cc(S(=O)(=O)N3CCCC3)ccc21)NC1CCCc2ccccc21` (stereo not given), the inhibition turned out to be 58.8%.

On to `Cc1cccc(C)c1NC(=O)CSCC(=O)c1ccc(O)c(O)c1`, for which the inhibition amounted to 94.7%.

Consider `Cc1sc(NC(=O)c2oc3ccccc3c2C)c(C#N)c1C`, for which the inhibition turned out to be 90.3%.

As to `CCCc1cc(C(N)=O)c(NC(=O)C2CCCO2)s1` (stereo not given), the inhibition stood at 98.3%.

Consider `COC(=O)c1ccc2c(=O)n(Cc3ccco3)c(SCC(=O)Nc3ccc(C)c(Cl)c3)nc2c1`, for which the inhibition worked out at 92.1%.

With `CC(Cc1ccc(O)c(O)c1)C(C)Cc1ccc(O)c(O)c1` (stereo not given), the inhibition came out at 99%.

`Cc1ccccc1OCc1nc(-c2ccc(NC(=O)c3ccc4c(c3)OCO4)cc2)no1`: the inhibition amounted to 90.2%.

As for `CC(C)OC(=O)CSc1nnc(-c2ccc(C(C)(C)C)cc2)n1N`, the inhibition came out at 59.5%.

The record behind these values is PubChem BioAssay AID652 (University of Pittsburgh Molecular Library Screening Center, 2007).
